Experimental data as given in the NIST ThermoML archive (doi:10.1016/j.tca.2014.04.026).
± gives the expanded uncertainty stated by the source.

Assay: molar heat capacity at constant pressure
Conditions: 101 kPa, Liquid, Small sample (50 mg) DSC

CCn1cc[n+](C)c1.N#C[C-](C#N)C#N [1-ethyl-3-methyl-1H-imidazolium tricyanomethanide]
molar heat capacity at constant pressure (296.2 K): 357 ± 7 J/K/mol
molar heat capacity at constant pressure (300.2 K): 360 ± 7 J/K/mol
molar heat capacity at constant pressure (304.2 K): 362 ± 7 J/K/mol
molar heat capacity at constant pressure (308.2 K): 364 ± 7 J/K/mol
molar heat capacity at constant pressure (312.2 K): 366 ± 7 J/K/mol
molar heat capacity at constant pressure (316.2 K): 367 ± 7 J/K/mol
molar heat capacity at constant pressure (320.2 K): 369 ± 7 J/K/mol
molar heat capacity at constant pressure (324.2 K): 370 ± 7 J/K/mol
molar heat capacity at constant pressure (328.2 K): 372 ± 7 J/K/mol
molar heat capacity at constant pressure (332.2 K): 374 ± 8 J/K/mol
molar heat capacity at constant pressure (336.2 K): 377 ± 8 J/K/mol
molar heat capacity at constant pressure (340.2 K): 379 ± 8 J/K/mol
molar heat capacity at constant pressure (344.2 K): 382 ± 8 J/K/mol
molar heat capacity at constant pressure (348.2 K): 384 ± 8 J/K/mol
molar heat capacity at constant pressure (352.2 K): 387 ± 8 J/K/mol
molar heat capacity at constant pressure (356.2 K): 390 ± 8 J/K/mol
molar heat capacity at constant pressure (360.2 K): 393 ± 8 J/K/mol
molar heat capacity at constant pressure (364.2 K): 396 ± 8 J/K/mol
molar heat capacity at constant pressure (368.2 K): 399 ± 8 J/K/mol
molar heat capacity at constant pressure (372.2 K): 403 ± 8 J/K/mol
